Measured values from patent publication US20090029979A1, “5-HTX MODULATORS” (BIO-MEDISINSK INNOVASJON AS, priority 2005, published 2009).
Like-named read-outs stand apart in the source and are kept apart here.

Key:
human 5-HT7(a) receptors = target: T1, human 5-HT7(a) receptors (Homo sapiens, UniProt P34969); assay: Radioligand binding assay with [3H]5-CT, membranes of HEK293 cells stably expressing human 5-HT7(a) receptors; settings: 5-HT7 ligands, values are pKd ± half-range, read-out: Binding affinity (pKd value) (pKd ± SEM) (converted)
T1 construct: expressed in transfected cells
T1 sequence (P34969 1-445 isoform P34969-2): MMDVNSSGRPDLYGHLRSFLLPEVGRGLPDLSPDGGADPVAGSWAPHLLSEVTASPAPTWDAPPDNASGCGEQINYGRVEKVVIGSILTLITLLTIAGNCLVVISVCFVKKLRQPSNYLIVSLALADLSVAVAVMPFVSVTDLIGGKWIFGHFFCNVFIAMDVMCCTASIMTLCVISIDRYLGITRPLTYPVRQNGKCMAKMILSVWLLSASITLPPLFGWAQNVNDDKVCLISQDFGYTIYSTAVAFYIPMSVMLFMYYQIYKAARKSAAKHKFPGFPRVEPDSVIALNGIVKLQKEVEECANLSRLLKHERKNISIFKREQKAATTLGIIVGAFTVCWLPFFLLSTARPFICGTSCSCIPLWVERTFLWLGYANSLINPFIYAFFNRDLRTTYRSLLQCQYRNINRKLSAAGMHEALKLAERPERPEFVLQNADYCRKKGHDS
Experimental: (§1) Binding assays were performed in 96-well, round-bottom microtiter plates with total reaction volumes of 50-200 μl, containing the indicated concentration of [^3H]GR113808 with or without competing unlabelled ligand in a binding buffer containing 50 mM Tris-HCl (pH 7.5 at RT), 1 mM EDTA, 5 mM EGTA, 2 mM MgCl2, 1 mM ascorbate, 0.1% BSA and 100 μM GTP. The plates were incubated at 23° C. for 60 min and harvested onto UniFilter™-96 GF/C™ (Packard Instrument Co., Meriden, Conn., USA), presoaked in 0.3% polyethyleneimine (Sigma), using a Packard FilterMate Universal Harvester with 96-well format, and washed 4-6 times with approximately 0.25 ml/well of ice-cold buffer, containing 50 mM Tris-HCl (pH 7.0 at RT) and 2 mM MgCl2. The filters were dried and counted at approximately 40% efficiency in a Top-Count liquid scintillation counter (Packard), using 20 μl per filter well of Micro-Scint liquid scintillation cocktail (Packard).
The same materials and methods described in example 83 were used for the biological testing of hydrophilic 5-HT7 and 5-HT2A ligands. Membrane preparations of HEK293 cell lines stably expressing human 5-HT7(a) receptors (Krobert et al. 2001), or HEK293 cells transiently transfected with human 5-HT2A receptor were used in the binding assays. 5-Carboxamido [^3H]tryptamine trifluoroacetate ([^3H]5-CT) and [^3H]ketanserin were used as radioligands in binding assays testing 5-HT7 and 5-HT2A ligands, respectively.
[^3H]5-CT (91 Ci/mmol) was from Amersham (Buckinghamshire, England). [^3H]ketanserin (72.2 Ci/mmol) was from Perkin Elmer (Boston, Mass., USA).

human 5-HT4(b) receptors [1] = target: T2, human 5-HT4(b) receptors (Homo sapiens, UniProt Q13639); assay: Adenylyl cyclase assay in membranes of HEK293 cells stably expressing human 5-HT4(b) receptors; assay type: biochemical; settings: for Kb: where n = 2, ± half-range, read-out: Antagonist pKb value (pKb ± SEM) (converted)
T2 construct: expressed in transfected cells
T2 sequence (Q13639 whole entry): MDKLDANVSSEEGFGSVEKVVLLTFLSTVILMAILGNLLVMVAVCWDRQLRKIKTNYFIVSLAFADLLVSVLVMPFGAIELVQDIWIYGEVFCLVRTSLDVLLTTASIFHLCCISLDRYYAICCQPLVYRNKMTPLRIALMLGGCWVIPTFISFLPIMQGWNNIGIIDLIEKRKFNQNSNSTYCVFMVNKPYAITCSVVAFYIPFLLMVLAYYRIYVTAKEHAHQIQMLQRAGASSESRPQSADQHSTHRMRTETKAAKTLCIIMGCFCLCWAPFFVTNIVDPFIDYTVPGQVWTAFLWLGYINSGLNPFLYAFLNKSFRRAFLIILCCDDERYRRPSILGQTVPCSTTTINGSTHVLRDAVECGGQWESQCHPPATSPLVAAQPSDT
Experimental: (§2) The development of HEK293 cell lines stably expressing human 5-HT4(b) receptors was described and published previously (Bach et al. 2001). Briefly, HEK293 cells (ATCC) were grown in Dulbecco's modified Eagle's medium with 10% fetal calf serum and penicillin (100 U/ml) and streptomycin (100 μg/ml). Cells were transfected with plasmid DNA (pcDNA3.1(−) containing human 5-HT4(b) receptor cDNA) using SuperFect Transfection Reagent (QIAGEN) according to the manufacturers protocol. Serial dilutions of transfected cells were plated in 96 well plates containing G418 (geneticin; Amersham) at 0.4 mg/ml, and isolated single colonies of cells transformed to the neomycin-resistant phenotype were expanded and tested for expression of serotonin receptors by measuring serotonin-stimulated adenylyl cyclase activity (Themmen et al. 1993). Transformed cells were always grown in the presence of G418 (0.4 mg/ml). For binding and adenylyl cyclase analysis, stable cell lines were grown and maintained in UltraCULTURE™ general purpose serum-free medium (BioWhittaker, Walkersville, Md., USA), supplemented with L-glutamine (2 mM), penicillin (100 U/ml) and streptomycin (100 μg/ml).
(§3) Membranes were prepared from stably transfected HEK293 cells cultured on 150-mm cell culture dishes and grown to 80% confluence in serum-free medium (UltraCULTURE™, BioWhittaker) with penicillin (10 U/ml) and 2 mM L-Glutamine (BioWhittaker). Cells were washed twice with 10 ml ice-cold HBSS, scraped with a rubber policeman in 10 ml ice-cold HBSS and collected by centrifugation at 800 g for 5 min at 4° C. The cell pellet was resuspended in 1 ml/dish ice-cold STE buffer (27% (w/v) sucrose, 50 mM Tris-HCl, pH 7.5 at 20° C., 5 mM EDTA) and homogenized with an Ultra-Turrax (IKA) homogenizer, using five 10 s bursts with 30 s cooling in ice-water between bursts. To remove nuclei, the homogenate was centrifuged at 300 g for 5 min at 4° C. and the supernatant was further centrifuged at 17000 g for 20 min at 4° C. and the supernatant removed. The crude membrane pellet was resuspended with ten strokes of tight fitting pestle B in a Dounce glass-glass homogenizer in 1 ml/dish ice-cold TE (50 mM Tris-HCl, pH 7.5 at RT, 5 mM EDTA). This procedure was repeated twice and the resuspended membranes were finally aliqouted and flash frozen in liquid nitrogen and stored at −70° C. until use.
Adenylyl cyclase activity was measured by determining conversion of [α-^32P]ATP to [^32P]cAMP in membranes prepared in STE by homogenization of cells grown and washed as described above in a Dounce glass-glass homogenizer by 10 strokes with the tight-fitting pestle. Membranes were kept on ice prior to assay. Adenylyl cyclase activities were measured on 10-μl aliquots in a final volume of 50 μl in the presence of 0.1 mM [α-^32P]ATP (1-2×10^6 cpm/assay), 4 mM MgCl2, 20 μM GTP, 1 mM EDTA, 1 mM [^3H]cAMP (ca. 10,000 cpm/assay), 1 μM 3-isobutyl-1-methyl xanthine (IBMX; Sigma), a nucleoside triphosphate regenerating system consisting of 20 mM creatine phosphate (Sigma), 0.2 mg/ml creatine phosphokinase (Sigma) and 40 U/ml myokinase (Sigma) and additives described in the text and figures. When forskolin (Calbiochem, La Jolla, Calif., USA) was used the concentration was 100 μM. Incubations were for 20 min at 32° C. Cyclic AMP formed was quantified by the double column chromatography system of Salomon et al. (1974) as modified by Bockaert et al. (1976).
(§4) Binding and adenylyl cyclase data were analyzed by non-linear regression using Microsoft Excel with the Solver add-in, using the below equations.
Activation of adenylyl cyclase—The data were fit to the equation
where a is basal adenylyl cyclase activity, b is maximal adenylyl cyclase activity stimulated by the agonist, c is EC50, and x is the concentration of agonist.

human 5-HT4(b) receptors [2] = target: T2, human 5-HT4(b) receptors; assay: Radioligand binding assay with [3H]GR113808, membranes of HEK293 cells stably expressing human 5-HT4(b) receptors
Experimental: as §2, §3, §1, §4
Competitive binding assays—The data were fit to the equation
where a is non-specific binding, b is total binding in the absence of competitor, c is IC50, and x is the concentration of competitor. Where relevant, relative binding data were obtained by recalculating the data using a=0 and b=100.
IC50 values from competitive binding assays were converted to Kb values by the method of Cheng and Prusoff (1973).

[3] = [3H]GR113808, HEK293 membranes, human 5-HT4(b), where n = 2, ± half-range, read-out: Binding affinity (pKd value) (pKd ± SEM) (converted)

## COC(=O)c1ccc(CN2CC=C(c3c[nH]c4ccc(OC)cc34)CC2)cc1 [Example 9]
Human 5-HT7(a) receptors
  Kd: 8510 nM

## O=C(CCCN1CCC(COC(=O)c2c[nH]c3ccccc23)CC1)OCC(Cl)(Cl)Cl [Example 12, 1H-indole-3-carboxylic acid 1-[3-(2,2,2-trichloroethyl-ethoxycarbonyl)-propyl]-piperidine-4-ylmethyl ester]
Human 5-HT4(b) receptors [1]
  Kb: 0.741 nM
Human 5-HT4(b) receptors [2]; [3]
  Kd: 5.01 nM

## O=C(O)CCCN1CCC(COC(=O)c2c[nH]c3ccccc23)CC1 [Example 13, 1H-indole-3-carboxylic acid 1-(3-carboxy-propyl)-piperidin-4-ylmethyl ester]
Human 5-HT4(b) receptors [1]
  Agonist/Antagonist properties: Antagonist
  Kb: 7.08 nM
Human 5-HT4(b) receptors [2]; [3]
  Kd: 0.912 nM

## O=C(O)CCCN1CCC(NC(=O)c2cccc3ccccc23)CC1 [Example 17]
Human 5-HT4(b) receptors [1]
  Kb: 38000 nM
Human 5-HT4(b) receptors [2]; [3]
  Kd: 1000 nM

## CCOC(=O)CCCN1CCC(NC(=O)c2cccc3ccccc23)CC1 [Example 18]
Human 5-HT4(b) receptors [1]
  Agonist/Antagonist properties: Antagonist
  Kb: 3240 nM
Human 5-HT4(b) receptors [2]; [3]
  Kd: 1580 nM

## O=C(OCC1CCN(Cc2ccccc2)CC1)c1cccc2ccccc12 [Example 22, 1-[(1-benzylpiperidin-4-yl)carboxymethyl] napthalene]
Human 5-HT4(b) receptors [1]
  Agonist/Antagonist properties: Weak partial
  Kb: 11.2 nM
Human 5-HT4(b) receptors [2]; [3]
  Kd: 42.7 nM

## CCOC(=O)CCCN1CCC(COC(=O)c2cccc3ccccc23)CC1 [Example 25]
Human 5-HT4(b) receptors [1]
  Agonist/Antagonist properties: Antagonist
  Kb: 6.61 nM
Human 5-HT4(b) receptors [2]; [3]
  Kd: 6.46 nM

## O=C(O)CCCN1CCC(COC(=O)c2cccc3ccccc23)CC1 [Example 26]
Human 5-HT4(b) receptors [1]
  Agonist/Antagonist properties: Weak partial
  Kb: 69.2 nM
Human 5-HT4(b) receptors [2]; [3]
  Kd: 12.9 nM

## CCOP(=O)(CCN1CCC(COC(=O)c2cccc3ccccc23)CC1)OCC [Example 27]
Human 5-HT4(b) receptors [1]
  Agonist/Antagonist properties: Weak partial
  Kb: 19.1 nM
Human 5-HT4(b) receptors [2]; [3]
  Kd: 15.8 nM

## CC(C)n1nc(C(=O)NC2CCN(Cc3ccccc3)CC2)c2ccccc21 [Example 29, N-(1-benzylpiperidin-4-yl)-1-isopropylindazole-3-carboxamide]
Human 5-HT4(b) receptors [1]
  Agonist/Antagonist properties: Partial agonist
  Kb: 309 nM
Human 5-HT4(b) receptors [2]; [3]
  Kd: 200 nM

## CCOC(=O)CCCN1CCC(NC(=O)c2nn(C(C)C)c3ccccc23)CC1 [Example 31]
Human 5-HT4(b) receptors [1]
  Agonist/Antagonist properties: Partial agonist
  Kb: 178 nM
Human 5-HT4(b) receptors [2]; [3]
  Kd: 67.6 nM

## CC(C)n1nc(C(=O)NC2CCN(CCCC(=O)O)CC2)c2ccccc21 [Example 33]
Human 5-HT4(b) receptors [1]
  Agonist/Antagonist properties: Partial agonist
  Kb: 1050 nM
Human 5-HT4(b) receptors [2]; [3]
  Kd: 692 nM

## CC(C)n1nc(C(=O)NC2CCN(Cc3ccc(C(=O)OCC(Cl)(Cl)Cl)cc3)CC2)c2ccccc21 [Example 35]
Human 5-HT4(b) receptors [1]
  Agonist/Antagonist properties: Partial agonist
  Kb: 724 nM
Human 5-HT4(b) receptors [2]; [3]
  Kd: 1200 nM

## CC(C)n1nc(C(=O)NC2CCN(Cc3ccc(C(=O)O)cc3)CC2)c2ccccc21 [Example 36]
Human 5-HT4(b) receptors [1]
  Kb: 1150 nM
Human 5-HT4(b) receptors [2]; [3]
  Kd: 2190 nM

## CCOC(=O)CCCN1CCC(CNC(=O)c2cc(Cl)c(N)cc2OC)CC1 [Example 40]
Human 5-HT4(b) receptors [1]
  Agonist/Antagonist properties: Partial agonist
  Kb: 66.1 nM
Human 5-HT4(b) receptors [2]; [3]
  Kd: 20 nM

## O=C(NCC1CCN(Cc2ccccc2)CC1)c1c2n(c3ccccc13)CCCO2 [Example 47]
Human 5-HT4(b) receptors [1]
  Agonist/Antagonist properties: Antagonist
  Kb: 0.427 nM
Human 5-HT4(b) receptors [2]
  Kd: 0.158 nM

## CCOC(=O)CCCN1CCC(CNC(=O)c2c3n(c4ccccc24)CCCO3)CC1 [Example 49]
Human 5-HT4(b) receptors [1]
  Agonist/Antagonist properties: Antagonist
  Kb: 1.55 nM
Human 5-HT4(b) receptors [2]
  Kd: 0.123 nM

## COC(=O)CCCCCN1CCC(CNC(=O)c2c3n(c4ccccc24)CCCO3)CC1 [Example 50]
Human 5-HT4(b) receptors [1]
  Agonist/Antagonist properties: Antagonist
  Kb: 0.759 nM
Human 5-HT4(b) receptors [2]
  Kd: 0.135 nM

## O=C(CCCN1CCC(CNC(=O)c2c3n(c4ccccc24)CCCO3)CC1)OCC(Cl)(Cl)Cl [Example 51]
Human 5-HT4(b) receptors [1]
  Kb: 0.537 nM
Human 5-HT4(b) receptors [2]
  Kd: 0.263 nM

## O=C(O)CCCN1CCC(CNC(=O)c2c3n(c4ccccc24)CCCO3)CC1 [Example 52]
Human 5-HT4(b) receptors [1]
  Kb: 11 nM
Human 5-HT4(b) receptors [2]; [3]
  Kd: 2.09 nM

## CCOP(=O)(CCN1CCC(CNC(=O)c2c3n(c4ccccc24)CCCO3)CC1)OCC [Example 53]
Human 5-HT4(b) receptors [1]
  Agonist/Antagonist properties: Antagonist
  Kb: 2.51 nM
Human 5-HT4(b) receptors [2]; [3]
  Kd: 1.32 nM

## CCOC(=O)CCCN1CCC(CNC(=O)c2c[nH]c3ccccc23)CC1 [Example 60]
Human 5-HT4(b) receptors [1]
  Agonist/Antagonist properties: Antagonist
  Kb: 1620 nM
Human 5-HT4(b) receptors [2]; [3]
  Kd: 110 nM

## O=C(O)CCCN1CCC(CNC(=O)c2c[nH]c3ccccc23)CC1 [Example 62]
Human 5-HT4(b) receptors [1]
  Kb: 28200 nM
Human 5-HT4(b) receptors [2]; [3]
  Kd: 3630 nM

## O=C(O)CN1CCN(S(=O)(=O)CCCN2CCC(CNC(=O)c3cccc4c3OCCO4)CC2)CC1 [Example 67]
Human 5-HT4(b) receptors [1]
  Agonist/Antagonist properties: Antagonist
  Kb: 2.75 nM
Human 5-HT4(b) receptors [2]; [3]
  Kd: 0.813 nM

## COC(=O)c1ccc(CN2CC=C(c3c[nH]c4ccccc34)CC2)cc1 [Example 68]
Human 5-HT7(a) receptors
  Kd: 11500 nM

## O=C(O)c1ccc(CN2CC=C(c3c[nH]c4ccccc34)CC2)cc1 [Example 69]
Human 5-HT7(a) receptors
  Kd: 81300 nM

## CCOC(=O)CCCN1CC=C(c2c[nH]c3ccccc23)CC1 [Example 70]
Human 5-HT7(a) receptors
  Kd: 661 nM

## COC(=O)c1ccc(CN2CCN(CCCCC34CCCc5cccc(c53)NC4=O)CC2)cc1 (stereo not shown) [Example 75]
Human 5-HT7(a) receptors
  Kd: 15800 nM

## O=C(O)c1ccc(CN2CCN(CCCCC34CCCc5cccc(c53)NC4=O)CC2)cc1 (stereo not shown) [Example 76]
Human 5-HT7(a) receptors
  Kd: 135000 nM

## Cn1cc(C(=O)OCC2CCN(CCNS(C)(=O)=O)CC2)c2ccccc21 [GR113808, 1-methyl-1H-indole-3-carboxylic acid, [1-[2-[(methylsulfonyl)amino]ethyl]-4-piperidinyl]methyl ester, reference compound]
Human 5-HT4(b) receptors [1]
  Agonist/Antagonist properties: Antagonist
  Kb: 0.537 nM
Human 5-HT4(b) receptors [2]; [3]
  Kd: 0.0813 nM

## CCCCN1CCC(CNC(=O)c2c3n(c4ccccc24)CCCO3)CC1 [SB207266, reference compound]
Human 5-HT4(b) receptors [1]
  Agonist/Antagonist properties: Antagonist
